Data published in the OligoGym collection.
Oligonucleotides are given in HELM: sugar(base)linkage, 5' to 3'; d 2'-deoxyribose, r ribose, m 2'-O-methylribose, p phosphate. ss, as = sense and antisense strand

Biological target: UBE2N
Experiment: reporter assay of Huesken 2005
Conditions: siRNA
Also: test concentration or dose not given here.

Substance	normalised inhibition (eCFP-eYFP dual reporter) [%]
RNA1{r(A)p.r(A)p.r(A)p.r(C)p.r(U)p.r(U)p.r(G)p.r(A)p.r(A)p.r(C)p.r(U)p.r(A)p.r(U)p.r(U)p.r(C)p.r(C)p.r(U)p.r(U)p.r(C)p.d(T)p.d(T)}|RNA2{r(G)p.r(A)p.r(A)p.r(G)p.r(G)p.r(A)p.r(A)p.r(U)p.r(A)p.r(G)p.r(U)p.r(U)p.r(C)p.r(A)p.r(A)p.r(G)p.r(U)p.r(U)p.r(U)p.d(A)p.d(A)}$$$RNA1{StrandType:ss}|RNA2{StrandType:as}$	43.6
RNA1{r(A)p.r(A)p.r(A)p.r(U)p.r(G)p.r(A)p.r(U)p.r(G)p.r(U)p.r(A)p.r(G)p.r(C)p.r(G)p.r(G)p.r(A)p.r(G)p.r(C)p.r(A)p.r(G)p.d(T)p.d(T)}|RNA2{r(C)p.r(U)p.r(G)p.r(C)p.r(U)p.r(C)p.r(C)p.r(G)p.r(C)p.r(U)p.r(A)p.r(C)p.r(A)p.r(U)p.r(C)p.r(A)p.r(U)p.r(U)p.r(U)p.d(G)p.d(C)}$$$RNA1{StrandType:ss}|RNA2{StrandType:as}$	43.2
RNA1{r(A)p.r(A)p.r(G)p.r(C)p.r(C)p.r(A)p.r(U)p.r(A)p.r(G)p.r(A)p.r(A)p.r(A)p.r(C)p.r(A)p.r(G)p.r(C)p.r(U)p.r(A)p.r(G)p.d(T)p.d(T)}|RNA2{r(C)p.r(U)p.r(A)p.r(G)p.r(C)p.r(U)p.r(G)p.r(U)p.r(U)p.r(U)p.r(C)p.r(U)p.r(A)p.r(U)p.r(G)p.r(G)p.r(C)p.r(U)p.r(U)p.d(G)p.d(G)}$$$RNA1{StrandType:ss}|RNA2{StrandType:as}$	90.4
RNA1{r(A)p.r(A)p.r(G)p.r(C)p.r(C)p.r(C)p.r(A)p.r(A)p.r(G)p.r(C)p.r(C)p.r(A)p.r(U)p.r(A)p.r(G)p.r(A)p.r(A)p.r(A)p.r(C)p.d(T)p.d(T)}|RNA2{r(G)p.r(U)p.r(U)p.r(U)p.r(C)p.r(U)p.r(A)p.r(U)p.r(G)p.r(G)p.r(C)p.r(U)p.r(U)p.r(G)p.r(G)p.r(G)p.r(C)p.r(U)p.r(U)p.d(C)p.d(G)}$$$RNA1{StrandType:ss}|RNA2{StrandType:as}$	61.1
RNA1{r(A)p.r(A)p.r(G)p.r(C)p.r(C)p.r(G)p.r(A)p.r(A)p.r(C)p.r(C)p.r(A)p.r(G)p.r(A)p.r(U)p.r(G)p.r(A)p.r(G)p.r(A)p.r(G)p.d(T)p.d(T)}|RNA2{r(C)p.r(U)p.r(C)p.r(U)p.r(C)p.r(A)p.r(U)p.r(C)p.r(U)p.r(G)p.r(G)p.r(U)p.r(U)p.r(C)p.r(G)p.r(G)p.r(C)p.r(U)p.r(U)p.d(T)p.d(G)}$$$RNA1{StrandType:ss}|RNA2{StrandType:as}$	88.3
RNA1{r(A)p.r(A)p.r(G)p.r(U)p.r(G)p.r(G)p.r(U)p.r(C)p.r(C)p.r(C)p.r(C)p.r(A)p.r(G)p.r(C)p.r(A)p.r(C)p.r(U)p.r(G)p.r(C)p.d(T)p.d(T)}|RNA2{r(G)p.r(C)p.r(A)p.r(G)p.r(U)p.r(G)p.r(C)p.r(U)p.r(G)p.r(G)p.r(G)p.r(G)p.r(A)p.r(C)p.r(C)p.r(A)p.r(C)p.r(U)p.r(U)p.d(A)p.d(T)}$$$RNA1{StrandType:ss}|RNA2{StrandType:as}$	48.2
RNA1{r(A)p.r(A)p.r(U)p.r(G)p.r(U)p.r(A)p.r(G)p.r(A)p.r(C)p.r(A)p.r(A)p.r(G)p.r(U)p.r(U)p.r(G)p.r(G)p.r(G)p.r(A)p.r(A)p.d(T)p.d(T)}|RNA2{r(U)p.r(U)p.r(C)p.r(C)p.r(C)p.r(A)p.r(A)p.r(C)p.r(U)p.r(U)p.r(G)p.r(U)p.r(C)p.r(U)p.r(A)p.r(C)p.r(A)p.r(U)p.r(U)p.d(A)p.d(G)}$$$RNA1{StrandType:ss}|RNA2{StrandType:as}$	93.8
RNA1{r(A)p.r(C)p.r(C)p.r(A)p.r(A)p.r(A)p.r(A)p.r(U)p.r(U)p.r(U)p.r(A)p.r(U)p.r(C)p.r(A)p.r(U)p.r(C)p.r(C)p.r(U)p.r(A)p.d(T)p.d(T)}|RNA2{r(U)p.r(A)p.r(G)p.r(G)p.r(A)p.r(U)p.r(G)p.r(A)p.r(U)p.r(A)p.r(A)p.r(A)p.r(U)p.r(U)p.r(U)p.r(U)p.r(G)p.r(G)p.r(U)p.d(C)p.d(A)}$$$RNA1{StrandType:ss}|RNA2{StrandType:as}$	81.6
RNA1{r(A)p.r(C)p.r(C)p.r(A)p.r(G)p.r(U)p.r(U)p.r(C)p.r(C)p.r(U)p.r(G)p.r(G)p.r(C)p.r(A)p.r(U)p.r(C)p.r(A)p.r(A)p.r(A)p.d(T)p.d(T)}|RNA2{r(U)p.r(U)p.r(U)p.r(G)p.r(A)p.r(U)p.r(G)p.r(C)p.r(C)p.r(A)p.r(G)p.r(G)p.r(A)p.r(A)p.r(C)p.r(U)p.r(G)p.r(G)p.r(U)p.d(T)p.d(C)}$$$RNA1{StrandType:ss}|RNA2{StrandType:as}$	97.4
RNA1{r(A)p.r(C)p.r(C)p.r(C)p.r(A)p.r(A)p.r(U)p.r(G)p.r(G)p.r(C)p.r(A)p.r(G)p.r(C)p.r(C)p.r(C)p.r(C)p.r(U)p.r(A)p.r(A)p.d(T)p.d(T)}|RNA2{r(U)p.r(U)p.r(A)p.r(G)p.r(G)p.r(G)p.r(G)p.r(C)p.r(U)p.r(G)p.r(C)p.r(C)p.r(A)p.r(U)p.r(U)p.r(G)p.r(G)p.r(G)p.r(U)p.d(A)p.d(T)}$$$RNA1{StrandType:ss}|RNA2{StrandType:as}$	64
RNA1{r(A)p.r(C)p.r(G)p.r(A)p.r(A)p.r(G)p.r(C)p.r(C)p.r(C)p.r(A)p.r(A)p.r(G)p.r(C)p.r(C)p.r(A)p.r(U)p.r(A)p.r(G)p.r(A)p.d(T)p.d(T)}|RNA2{r(U)p.r(C)p.r(U)p.r(A)p.r(U)p.r(G)p.r(G)p.r(C)p.r(U)p.r(U)p.r(G)p.r(G)p.r(G)p.r(C)p.r(U)p.r(U)p.r(C)p.r(G)p.r(U)p.d(T)p.d(G)}$$$RNA1{StrandType:ss}|RNA2{StrandType:as}$	77.5
RNA1{r(A)p.r(C)p.r(G)p.r(C)p.r(C)p.r(C)p.r(G)p.r(U)p.r(U)p.r(A)p.r(U)p.r(U)p.r(U)p.r(U)p.r(C)p.r(A)p.r(U)p.r(G)p.r(U)p.d(T)p.d(T)}|RNA2{r(A)p.r(C)p.r(A)p.r(U)p.r(G)p.r(A)p.r(A)p.r(A)p.r(A)p.r(U)p.r(A)p.r(A)p.r(C)p.r(G)p.r(G)p.r(G)p.r(C)p.r(G)p.r(U)p.d(T)p.d(G)}$$$RNA1{StrandType:ss}|RNA2{StrandType:as}$	62.4

Biological target: UBE2K
Experiment: reporter assay of Huesken 2005
Conditions: siRNA

Substance	normalised inhibition (eCFP-eYFP dual reporter) [%]
RNA1{r(U)p.r(G)p.r(G)p.r(C)p.r(A)p.r(U)p.r(C)p.r(C)p.r(U)p.r(A)p.r(A)p.r(U)p.r(A)p.r(U)p.r(U)p.r(A)p.r(G)p.r(U)p.r(U)p.d(T)p.d(T)}|RNA2{r(A)p.r(A)p.r(C)p.r(U)p.r(A)p.r(A)p.r(U)p.r(A)p.r(U)p.r(U)p.r(A)p.r(G)p.r(G)p.r(A)p.r(U)p.r(G)p.r(C)p.r(C)p.r(A)p.d(T)p.d(A)}$$$RNA1{StrandType:ss}|RNA2{StrandType:as}$	61.6
RNA1{r(U)p.r(G)p.r(G)p.r(G)p.r(C)p.r(A)p.r(G)p.r(C)p.r(U)p.r(G)p.r(C)p.r(A)p.r(A)p.r(U)p.r(G)p.r(A)p.r(C)p.r(U)p.r(C)p.d(T)p.d(T)}|RNA2{r(G)p.r(A)p.r(G)p.r(U)p.r(C)p.r(A)p.r(U)p.r(U)p.r(G)p.r(C)p.r(A)p.r(G)p.r(C)p.r(U)p.r(G)p.r(C)p.r(C)p.r(C)p.r(A)p.d(T)p.d(T)}$$$RNA1{StrandType:ss}|RNA2{StrandType:as}$	44.2
RNA1{r(U)p.r(G)p.r(U)p.r(A)p.r(G)p.r(A)p.r(U)p.r(G)p.r(A)p.r(G)p.r(A)p.r(A)p.r(U)p.r(U)p.r(U)p.r(U)p.r(A)p.r(C)p.r(A)p.d(T)p.d(T)}|RNA2{r(U)p.r(G)p.r(U)p.r(A)p.r(A)p.r(A)p.r(A)p.r(U)p.r(U)p.r(C)p.r(U)p.r(C)p.r(A)p.r(U)p.r(C)p.r(U)p.r(A)p.r(C)p.r(A)p.d(A)p.d(G)}$$$RNA1{StrandType:ss}|RNA2{StrandType:as}$	89.5
RNA1{r(U)p.r(G)p.r(U)p.r(U)p.r(U)p.r(G)p.r(G)p.r(A)p.r(U)p.r(A)p.r(U)p.r(C)p.r(C)p.r(U)p.r(G)p.r(A)p.r(A)p.r(A)p.r(G)p.d(T)p.d(T)}|RNA2{r(C)p.r(U)p.r(U)p.r(U)p.r(C)p.r(A)p.r(G)p.r(G)p.r(A)p.r(U)p.r(A)p.r(U)p.r(C)p.r(C)p.r(A)p.r(A)p.r(A)p.r(C)p.r(A)p.d(A)p.d(A)}$$$RNA1{StrandType:ss}|RNA2{StrandType:as}$	58.7
RNA1{r(U)p.r(U)p.r(C)p.r(C)p.r(G)p.r(U)p.r(C)p.r(A)p.r(C)p.r(A)p.r(G)p.r(G)p.r(G)p.r(G)p.r(C)p.r(U)p.r(A)p.r(U)p.r(U)p.d(T)p.d(T)}|RNA2{r(A)p.r(A)p.r(U)p.r(A)p.r(G)p.r(C)p.r(C)p.r(C)p.r(C)p.r(U)p.r(G)p.r(U)p.r(G)p.r(A)p.r(C)p.r(G)p.r(G)p.r(A)p.r(A)p.d(C)p.d(T)}$$$RNA1{StrandType:ss}|RNA2{StrandType:as}$	55.5
RNA1{r(U)p.r(U)p.r(G)p.r(U)p.r(A)p.r(G)p.r(A)p.r(U)p.r(G)p.r(A)p.r(G)p.r(A)p.r(A)p.r(U)p.r(U)p.r(U)p.r(U)p.r(A)p.r(C)p.d(T)p.d(T)}|RNA2{r(G)p.r(U)p.r(A)p.r(A)p.r(A)p.r(A)p.r(U)p.r(U)p.r(C)p.r(U)p.r(C)p.r(A)p.r(U)p.r(C)p.r(U)p.r(A)p.r(C)p.r(A)p.r(A)p.d(G)p.d(A)}$$$RNA1{StrandType:ss}|RNA2{StrandType:as}$	55.1
RNA1{r(U)p.r(U)p.r(U)p.r(G)p.r(U)p.r(U)p.r(U)p.r(G)p.r(G)p.r(A)p.r(U)p.r(A)p.r(U)p.r(C)p.r(C)p.r(U)p.r(G)p.r(A)p.r(A)p.d(T)p.d(T)}|RNA2{r(U)p.r(U)p.r(C)p.r(A)p.r(G)p.r(G)p.r(A)p.r(U)p.r(A)p.r(U)p.r(C)p.r(C)p.r(A)p.r(A)p.r(A)p.r(C)p.r(A)p.r(A)p.r(A)p.d(T)p.d(A)}$$$RNA1{StrandType:ss}|RNA2{StrandType:as}$	78.9
RNA1{r(U)p.r(U)p.r(U)p.r(U)p.r(A)p.r(C)p.r(A)p.r(G)p.r(A)p.r(A)p.r(U)p.r(U)p.r(A)p.r(A)p.r(G)p.r(A)p.r(G)p.r(G)p.r(A)p.d(T)p.d(T)}|RNA2{r(U)p.r(C)p.r(C)p.r(U)p.r(C)p.r(U)p.r(U)p.r(A)p.r(A)p.r(U)p.r(U)p.r(C)p.r(U)p.r(G)p.r(U)p.r(A)p.r(A)p.r(A)p.r(A)p.d(T)p.d(T)}$$$RNA1{StrandType:ss}|RNA2{StrandType:as}$	47.6
